From US20220119355A1, “SATURATED-RING-FUSED DIHYDROPYRIMIDINONE OR DIHYDROTRIAZINONE COMPOUNDS AND PHARMACEUTICAL USE THEREOF” (Japan Tobacco Inc., priority 2018, published 2022)

How the values were obtained:
Type in all cases: cell-based
[1] = biological target: T1, human RORγ (Homo sapiens, UniProt P51449); assay: In-vitro reporter gene assay for inhibitory activity against RORγ transcription, Test Method B (pFA/hRORγ LBD / pG5-Luc in CHO cells); conditions: luciferase reporter, CHO cells, 2 days
T1 construct: from Ser253 to Lys518 for human RORγ; expressed in transfected cells; host or cells: CHO cells (transient co-transfection with pG5-Luc)
T1 sequence (P51449 253-518): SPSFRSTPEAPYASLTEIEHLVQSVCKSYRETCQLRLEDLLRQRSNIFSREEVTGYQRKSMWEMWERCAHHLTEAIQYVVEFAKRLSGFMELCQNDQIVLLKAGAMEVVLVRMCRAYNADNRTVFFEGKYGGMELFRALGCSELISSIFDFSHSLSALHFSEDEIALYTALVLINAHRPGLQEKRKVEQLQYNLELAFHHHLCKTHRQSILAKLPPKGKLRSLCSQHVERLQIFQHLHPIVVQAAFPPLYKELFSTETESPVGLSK
Method: (§1) In-Vitro Assay for Inhibitory Activity Against RORγ Transcription
(§2) Inhibitory activity against RORγ transcription was assessed for test compounds by either of the following Test Method A or B of reporter gene assay.
(§3) cDNAs encoding human and mouse RORγ ligand binding domains (LBD) were obtained based on the sequences of human RORγ (Genbank registered number NM_005060.3) and mouse RORγ (Genbank registered number NM_011281.2) (LBD sequences: from Ser253 to Lys518 for human RORγ; from Ile251 to Lys516 for mouse RORγ).
(§4) LBD cDNAs of human and mouse RORγ were inserted into pFA-CMV vector (Agilent Technologies, Inc.), which expresses GAL4-DNA binding domain fusion protein. The resulting plasmids are hereinafter referred to as pFA/hRORγ plasmid and pFA/mRORγ plasmid, respectively.
(§5) pFA/hRORγ plasmid or pFA/mRORγ plasmid was transiently co-transfected into Chinese hamster ovary cells (CHO cells) with pG5-Luc (Promega), reporter plasmid expressing firefly luciferase in a GAL4-dependent manner.
(§6) TransIT (Registered trademark) CHO Transfection Kit (Mirus) was used to co-transfect CHO cells with the plasmids. One day prior to the assay, CHO cells were suspended in HAM F-12 Nutrient medium containing 10% (v/v) fetal bovine serum and seeded at 5.5×10^6 cells per 225 cm^2 cell culture flask each. 72 μL of TransIT (Registered trademark) CHO reagent was added into a 2 mL tube containing 1.55 mL of Opti-MEM, and then mixed and incubated at room temperature for 10 minutes. 50.4 μL of a plasmid solution containing 300 ng of pFA/hRORγ plasmid, 12000 ng of pG5-Luc plasmid, and 11700 ng of pcDNA3.1 plasmid were added into the tube and mixed gently. In the case of mouse assay, a plasmid solution containing 300 ng of pFA/mRORγ plasmid, 12000 ng of pG5-Luc plasmid, and 11700 ng of pcDNA3.1 plasmid was added, instead. The mixture was incubated at room temperature for 10 minutes. 12 μL each of CHO Mojo Reagent were then added into each tube and mixed gently. The mixture was incubated at room temperature for 10 minutes. The resulting transfection reagent was applied to the cell culture. After incubation at 37° C., 5% CO2 for 4 hours, the plasmid-transfected CHO cells were harvested by trypsin treatment. The collected cells were resuspended in culture medium and plated into a 384-well-white plate at 8,000 cells/35 μL/well. The plate was let stand at room temperature for 1 hour and then further incubated at 37° C., 5% CO2 for 3 hours. A test compound was dissolved in dimethyl sulfoxide (DMSO) to obtain a concentration of 10 mM. Each solution was serially diluted with DMSO and further diluted with culture medium just before use. The test compound solutions were added to the cells in the plate at 6 different concentrations. The final concentration of DMSO was 0.2% (v/v). After the addition of test compound, the cells were incubated at 37° C., 5% CO2 for 2 days.
(§7) RORγ transcriptional activity was detected as the intracellular luciferase activity using SteadyLite HTS Reporter Gene Assay System (Perkin Elmer). SteadyLite Reagent was diluted 2.5-fold with Extension buffer (10 mM Tricine, 0.2% (w/v) bovine serum albumin, 0.02% (v/v) Tween-20) to obtain a luciferase substrate solution. Two days after the addition of test compound, 40 μL each of the luciferase substrate solution was added into the 384-well-plate. After the incubation at room temperature for 10 minutes, luminescence of each well was measured with a microplate reader. The luciferase activity derived from the luminescence count in a vehicle-control well treated with 0.2% DMSO alone was defined as 100%, and the luciferase activity after treatment of the test compound was calculated as a percentage, %-of-control, based on the value of the vehicle-control. An EC50 value of the test compound was calculated by curve fitting. The luminescence counts at the concentration of test compound where cytotoxicity was observed were excluded from data analysis. […]

[2] = biological target: T2, mouse RORγ (Mus musculus, UniProt P51450); assay: In-vitro reporter gene assay for inhibitory activity against RORγ transcription, Test Method B (pFA/mRORγ LBD / pG5-Luc in CHO cells); conditions: luciferase reporter, CHO cells, 2 days
T2 construct: from Ile251 to Lys516 for mouse RORγ; expressed in transfected cells; host or cells: CHO cells (transient co-transfection with pG5-Luc)
T2 sequence (P51450 251-516): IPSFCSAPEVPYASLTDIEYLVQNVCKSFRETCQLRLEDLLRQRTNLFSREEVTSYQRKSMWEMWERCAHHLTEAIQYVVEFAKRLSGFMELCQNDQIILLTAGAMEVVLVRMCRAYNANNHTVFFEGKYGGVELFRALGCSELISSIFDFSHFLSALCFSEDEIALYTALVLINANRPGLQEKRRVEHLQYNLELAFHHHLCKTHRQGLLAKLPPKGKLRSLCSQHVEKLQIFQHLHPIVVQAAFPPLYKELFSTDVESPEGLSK
Method: as §1, §2, §3, §4, §5, §6, §7

[3] = biological target: T1, human RORγ; assay: In-vitro reporter gene assay for inhibitory activity against RORγ transcription, Test Method A (GAL4-hRORγ LBD / pG5-Luc in CHO cells); conditions: luciferase reporter, 2 days
Method: as §1, §2, §3
(§8) LBD cDNAs of human and mouse RORγ were inserted into pFA-CMV vector (Stratagene), which expresses GAL4-DNA binding domain fusion protein. The resulting plasmids are hereinafter referred to as GAL4-hRORγ plasmid and GAL4-mRORγ plasmid, respectively.
(§9) GAL4-hRORγ plasmid or GAL4-mRORγ plasmid was transiently co-transfected into Chinese hamster ovary cells (CHO cells) with pG5-Luc (Promega), reporter plasmid expressing firefly luciferase in a GAL4-dependent manner.
(§10) TransIT (Registered trademark) CHO Transfection Kit (Mirus) was used to co-transfect CHO cells with the plasmids. One day prior to the assay, CHO cells were suspended in HAM F-12 Nutrient medium containing 10% (v/v) fetal bovine serum and seeded at 6×10^6 cells per 175 cm^2 cell culture flask each. 54 μL of TransIT (Registered trademark) CHO reagent was added into a 15 mL tube containing 1.16 mL of HAM F-12 Nutrient medium without fetal bovine serum, and then mixed and incubated at room temperature for 10 minutes. 36 μL of a plasmid solution containing 400 ng of GAL4-hRORγ plasmid, 9000 ng of pG5-Luc plasmid, and 8600 ng of pcDNA3 plasmid were added into the tube and mixed gently. In the case of mouse assay, a plasmid solution containing 250 ng of GAL4-mRORγ plasmid, 9000 ng of pG5-Luc plasmid, and 8750 ng of pcDNA3 plasmid was added, instead. The mixture was incubated at room temperature for 10 minutes. 9 μL each of CHO Mojo Reagent were then added into each tube and mixed gently. The mixture was incubated at room temperature for 10 minutes. The resulting transfection reagent was applied to the cell culture. After incubation at 37° C., 5% CO2 for 4 hours, the plasmid-transfected CHO cells were harvested by trypsin treatment. The collected cells were resuspended in culture medium and plated into a 384-well-white plate at 8,000 cells/50 μL/well. The plate was let stand at room temperature for 1 hour and then further incubated at 37° C., 5% CO2 for 3 hours. A test compound was dissolved in DMSO to obtain a concentration of 10 mM. Each solution was serially diluted with DMSO and further diluted with culture medium just before use. The test compound solutions were added. to the cells in the plate at 8 different concentrations. The final concentration of DMSO was 0.2% (v/v). After the addition of test compound, the cells were incubated at […], 5% CO2 for 2 days.
(§11) RORγ transcriptional activity was detected as the intracellular luciferase activity using SteadyLite HTS Reporter Gene Assay System (Perkin Elmer). SteadyLite Reagent was diluted five-fold with Extension buffer (10 mM Tricine, 0.2% (w/v) bovine serum albumin, 0.02% (v/v) Tween-20) to obtain a luciferase substrate solution. After the measurement of the cell viability with Resazurin, the medium was removed in the plate and the luciferase substrate solution was added thereto. After the incubation at room temperature for 10 minutes, luminescence of each well was measured with a microplate reader. The luciferase activity derived from the luminescence count in a vehicle-control well treated with 0.2% DMSO alone was defined as 100%, and the luciferase activity after treatment with the test compound was calculated as a percentage, %-of-control, based on the value of the vehicle-control. An EC50 value of the test compound was calculated by curve fitting with GraphPad Prism. The luminescence counts at the concentration of test compound where cytotoxicity was observed were excluded from data analysis. […]

[4] = biological target: T2, mouse RORγ; assay: In-vitro reporter gene assay for inhibitory activity against RORγ transcription, Test Method A (GAL4-mRORγ LBD / pG5-Luc in CHO cells); conditions: luciferase reporter, 2 days
Method: as §1, §2, §3, §8, §9, §10, §11

Row | Compound | EC50 [1] [µM] | EC50 [2] [µM] | EC50 [3] [µM] | EC50 [4] [µM]
1 | CC1(C)CC1COc1ccc(C23CCCCC2=CN(CCC(=O)O)C(=O)N3)cc1Cl (racemic) [Example 88] | 0.751 | 0.169 | – | –
2 | O=C(O)CCN1C=C2CCCCC2(c2ccc(OC3CCCCC3)c(Cl)c2)NC1=O (racemic) [Example 95] | 2.34 | 0.455 | – | –
3 | CC1CCC2(c3ccc(CCC(C)(C)C)c(Cl)c3)NC(=O)N(CCC(=O)O)C=C2C1 (single isomer, unassigned) [Example 69] | – | – | 0.015 | 0.027
4 | C[C@H]1CC2=CN(CCC(=O)O)C(=O)NC2(c2ccc(CCC(C)(C)C)c(Cl)c2)CO1 (single isomer, unassigned) [Example 70] | – | – | 0.541 | 0.516
5 | C[C@@H]1CC2=CN(CCC(=O)O)C(=O)NC2(c2ccc(CCC(C)(C)C)c(Cl)c2)CO1 (single isomer, unassigned) [Example 71] | – | – | 0.01 | 0.007
6 | C[C@@H]1CC2=CN(C34CC(C(=O)O)(C3)C4)C(=O)NC2(c2ccc(CCC(C)(C)C)c(Cl)c2)CO1 (single isomer, unassigned) [Example 72] | – | – | 0.028 | 0.015
7 | CC(C)(C)CCc1ccc(C23CCC(C(F)(F)F)CC2=CN(C24CC(C(=O)O)(C2)C4)C(=O)N3)cc1Cl (single isomer, unassigned) [Example 75] | – | – | 0.061 | 0.038
8 | COC1CC[C@]2(c3ccc(CCC(C)(C)C)c(Cl)c3)NC(=O)N(C34CC(C(=O)O)(C3)C4)C=C2C1 (single isomer, unassigned) [Example 76] | – | – | 2.41 | 3.03
9 | COC1CC[C@@]2(c3ccc(CCC(C)(C)C)c(Cl)c3)NC(=O)N(C34CC(C(=O)O)(C3)C4)C=C2C1 (single isomer, unassigned) [Example 77] | – | – | 0.024 | 0.031
